The nature of the data set: Solubility assessment: visual, by final volume of water added until the sample is completely dissolved. As to the method: Solubility indicates the result of measurement based on the final volume of water added to a sample when it is visually confirmed that the sample is completely dissolved by adding water to the sample. The solubility of the actual sample may be higher than the measured solubility. Solubility was measured based on the final volume of water added to a sample when it was visually confirmed that the sample was completely dissolved by adding water to the sample.

Where [1] appears, read: in water, visual complete dissolution, actual solubility may be higher than measured.

Like-named read-outs stand apart in the source and are kept apart here.

For `CC(O)C(=O)O.CC1CCC(N(C(=O)C(C)C)[C@H]2C[C@@H](C(=O)N3CCOCC3)N(C(=O)[C@@H]3CN(C(C)(C)C)C[C@H]3c3ccc(Cl)cc3)C2)CC1` (stereo partly drawn) [Example 1, N-((3S,5S)-1-((3S,4R)-1-(tert-butyl)-4-(4-chlorophenyl)pyrrolidine-3-carbonyl)-5-(morpholine-4-carbonyl)pyrrolidin-3-yl)-N-((1 s,4R)-4-methylcyclohexyl)isobutyramide lactate], the solubility entry under setting [1] is listed as “more than 24 mg/mL”.
On the same count and under the same terms, to `CC(C)C(=O)N([C@H]1C[C@@H](C(=O)N2CCOCC2)N(C(=O)[C@@H]2CN(C(C)(C)C)C[C@H]2c2ccc(Cl)cc2)C1)[C@H]1CC[C@@H](C)CC1.O=S(=O)(O)c1ccccc1` [Example 2, N-((3S,5S)-1-((3S,4R)-1-(tert-butyl)-4-(4-chlorophenyl)pyrrolidine-3-carbonyl)-5-(morpholine-4-carbonyl)pyrrolidin-3-yl)-N-((1 s,4R)-4-methylcyclohexyl)isobutyramide benzene sulfonate] belongs “more than 1 mg/mL”.
Consider `CC(C)C(=O)N([C@H]1C[C@@H](C(=O)N2CCOCC2)N(C(=O)[C@@H]2CN(C(C)(C)C)C[C@H]2c2ccc(Cl)cc2)C1)[C@H]1CC[C@@H](C)CC1.Cc1ccc(S(=O)(=O)O)cc1` [Example 3, N-((3S,5S)-1-((3S,4R)-1-(tert-butyl)-4-(4-chlorophenyl)pyrrolidine-3-carbonyl)-5-(morpholine-4-carbonyl)pyrrolidin-3-yl)-N-((1 s,4R)-4-methylcyclohexyl)isobutyramide toluene sulfonate], for which the solubility entry is reported as “more than 10 mg/mL”.

The record behind these values is patent US20240217954A1, “CRYSTAL FORM IV OF ORGANIC ACID SALTS OF MELANOCORTIN RECEPTOR AGONIST COMPOUND, AND PREPARATION METHOD THEREOF” (LG CHEM, LTD., priority 2021, published 2024).
